# Where two headings read alike, the source gives them in different places. Where a SMILES comes first, the peptide text is derived from it. The star is where a group is joined. Cbz = O=C(OCc1ccccc1)*; CH2F = FC*
# Test system: N27 cells
# Details: for potency in attenuating apoptosis compared with caspase-3 inhibitor DEVD-FMK, in words: 6-OHDA model
# Protocol: […] Z is the abbreviation for N-benzyloxycarbonyl. Untreated cells were used as control samples. After the treatment, the cells were collected by trypsinization (Trypsin 0.25%, 1 mM EDTA), centrifuged at 200×g for 5 min, washed with PBS twice, then lysed. The lysate was used for DNA fragmentation assay.
# DNA fragmentation assays were performed using a recently developed Cell Death Detection ELISA Plus Assay Kit. This is a fast, highly sensitive and reliable assay for the detection of early changes in apoptotic cell death. After treatments, 20 μl of cell lysate was processed according to the manufacturer's protocol. The assay solution consisted of a mixture of anti-histone biotin and anti-DNA-HRP directed against various histones and antibodies to both single stranded DNA and double stranded DNA, the major constituents of nucleosomes. After 2 hr incubation, unbound components were removed by washing with the incubation buffer supplied with the kit. Quantification of the nucleosomes retained by anti-DNA-HRP in the immunocomplex was determined spectrophotometrically with ABTS (2,2′-azino-di[3-ethoxybenzyl thiazoline sulfonate) as a HRP substrate (supplied with the kit). Measurements were made at 405 nm against an ABTS solution as a blank (reference wave length 490 nm).
# Chemicals. Protease cocktail, ATP, protein-A-sepharose, protein-G-sepharose and anti-â-actin antibody were obtained from Sigma-Aldrich (St. Louis, Mo.); mouse tyrosine hydroxylase antibody was purchased from Chemicon (Temecula, Calif.); the rabbit polyclonal antibody for tyrosine hydroxylase was obtained from Calbiochem Bioscience, Inc. (King of Prussia, Pa.); rabbit PKCδ antibody was purchased from Santa Cruz Biotechnology, Inc. (Santa Cruz, Calif.); anti-rabbit and anti-mouse secondary antibodies and the ECL chemiluminescence kit were purchased from Amersham Pharmacia Biotech. (Piscataway, N.J.). Alexa 488 conjugated antirabbit/mouse, Cy3 conjugated anti-rabbit/mouse antibody and Hoechst 33342 were purchased from Molecular Probes, Inc. (Eugene, Oreg.). [ã-32P]ATP was purchased from Perkin Elmer Life Science Products (Boston, Mass.). The Bradford protein assay kit was purchased from Bio-Rad Laboratories (Hercules, Calif.). RPMI, fetal bovine serum, -glutamine, penicillin, and streptomycin were purchased from Invitrogen (Gaithersburg, Md.). Quantity One 4.2.0 software was purchased from Bio-Rad. Design and synthesis of z-DIPD-fmk (SEQ ID NO:5). To develop a cell permeable peptide inhibitor to specifically block PKCδ cleavage, we designed the tetrapeptide Asp-Ile-Pro-Asp (DIPD) (SEQ ID NO:5) corresponding to position 324-327 in rat PKCδ cDNA representing the caspase-3 cleavage site. Since this peptide is directed against the caspase-3 cleavage site of PKCδ, it should prevent the proteolytic cleavage and activation of PKCδ mediated by caspase-3. The custom synthesis of the tetrapeptide Z-Asp(OMe)-Ile-Pro-Asp(OMe)-FMK (SEQ ID NO:5) was performed at MP Biomedicals (Irvine, Calif.), a quality company that specializes in developing cell permeable peptide inhibitors directed against apoptosis cell signaling molecules. Briefly, the synthesis was performed with the reaction of Boc-D(OMe)-OH with MBFM (Magnesium benzyl fluoromalonate) to produce Beta-Keto fluoroester, followed by hydrogenation with Pd/c to produce Boc-D(OMe)FK, which was converted into Tfa salt using trifluoroacetic acid. Coupling of Tfa salt with Z-D(OMe)—I—P—OH in DMF with HOBT, HBTU DIEA and workup produced a crude product which was purified by column chromatography over silica gel. Elution with EtOAC:MeOH 95:5 gave pure fractions which were mixed and dried. Crystallization with EtOAC/Hexane, filtration and drying produced the pure product. Animals.
smiles,measurement,setting,value
"CC[C@H](C)[C@H](NC(=O)[C@H](CC(=O)OC)NC(=O)OCc1ccccc1)C(=O)N1CCC[C@H]1C(=O)N[C@@H](CC(=O)OC)C(=O)CF [z-DIPD-fmk, Z-Asp(OMe)-Ile-Pro-Asp(OMe)-FMK] (Cbz-D(OMe)IPD(OMe)-CH2F)",effect on 6-OHDA-induced DNA fragmentation / apoptotic cell death,"100 μM 6-OHDA 24 hr, concentration not stated or dose-response 1-50 μM, listed as N-benzyloxycarbonyl-Asp(OMe)-Ile-Pro-Asp(OMe)-FMK",effectively blocked
same,effect on 6-OHDA-induced DNA fragmentation,"100 μM 6-OHDA 24 hr, inhibitor 50 μM",completely blocked
same,effect on MPP+-induced DNA fragmentation,"300 μM MPP+ 36 hr, inhibitor 50 μM",significantly attenuated
same,"potency in attenuating apoptosis compared with caspase-3 inhibitor DEVD-FMK, in words",,much more potent
same,"potency in attenuating apoptosis compared with caspase-3 inhibitor DEVD-FMK, in words",listed as N-benzyloxycarbonyl-Asp(OMe)-Ile-Pro-Asp(OMe)-FMK,more potent
same,effect on MPP+-induced DNA fragmentation,"MPP+, inhibitor concentration not stated",dose-dependently attenuated
same,effect on MPP+-induced DNA fragmentation,"MPP+, inhibitor concentration not stated, listed as N-benzyloxycarbonyl-Asp(OMe)-Ile-Pro-Asp(OMe)-FMK",inhibited
same,potency relative to z-DEVD-fmk at protecting against 6-OHDA-induced apoptotic cell death,from IC50 values,at least 3 times
same,effect on 6-OHDA-induced DNA fragmentation,inhibitor as low as 3 μM,almost completely inhibits
same,IC50,"read-out: IC50, 6-OHDA-induced DNA fragmentation (apoptotic cell death), 100 μM 6-OHDA 24 hr, inhibitor 1-50 μM",6 µM

# From patent publication US7632819B1, “Methods and compositions for inhibiting PKC delta cleavage for treatment and prevention of neurodegeneration and apoptosis” (Iowa State University Research Foundation, Inc., priority 2004, dated 2009)
